# Results as given in patent US20260048051A1, “TREATMENT OF INFLAMMATORY BOWEL DISEASE” (Atomwise Inc., priority 2024, published 2026).
# Read-outs that look alike come from different tables or passages of the source.
# Assay: Plasma and tissue distribution in SD rats
# Type: in vivo
# Conditions: for Kp / AUC(0-t): rat, 10 mg/kg; for AUC(0-t): plasma
# Excerpt: The following Example describes the methods and data used to evaluate the tissue distribution of TYK2 inhibitors following the administration of either compound 1 or compound 2.
# Thirty (30, 15/sex) SD rats supplied by Beijing Vital River Laboratory Animal Technology Co., Ltd. were used in this study. The animals were confirmed to be healthy before being assigned to the study. The room (s) was controlled and monitored for relative humidity (targeted mean range 40% to 70%) and temperature (targeted mean range 20° C. to 26° C.) with 15 or above air changes/hour. The room was on a 12-hour light/dark cycle except when interruptions were necessitated by study activities. Fresh drinking water (reverses osmosis) was available to all animals, ad libitum. Certified animal diet from certified vendor was available to all animals, ad libitum.
# Animals were weighed prior to dose administration to calculate the actual dose volume. The body weights were in the range from 245.39 to 276.33 g for males and 182.29 to 215.69 g for females on the first dosing day. The animals in Groups 1 and 2 received a single oral gavage administration of test compound 1. Cage-side observations for the general health condition and appearance of the animal were performed before and after dosing and at each time point of sample collection. Unusual observations were recorded throughout the duration of the study.
# The vehicle was 0.5% methyl cellulose (4000 cps) in water. The formulation was prepared according to the following steps. Group 1: 25.95 mg of compound 1 was weighed into a glass vial. 5000 μL of vehicle was added into the vial and stirred for 30 min at 1700 rpm to get a homogenous opaque suspension. 5000 μL of vehicle was added into the vial and stirred for 10 min at 1700 rpm to get a homogenous opaque suspension. 5000 μL+5000 μL+5000 μL+924 μL of vehicle was added into the vial and stirred for 10 min at 1700 rpm to get a homogenous opaque suspension. Group 2: 81.66 mg of compound 1 was weighed into a glass vial. 5000 μL of vehicle was added into the vial and stirred for 30 min at 1700 rpm to get a homogenous opaque suspension. 5000 μL of vehicle was added into the vial and stirred for 10 min at 1700 rpm to get a homogenous opaque suspension. 10 mL+10 mL+10 mL+20 mL+10 mL+10 mL+1580 μL of vehicle was added into the vial and stirred for 10 min at 1700 rpm to get a homogenous opaque suspension.
# Blood (about 0.2 mL) was collected at each time point via jugular vein puncture from each study animal. The actual time for each sample collection was recorded. The acceptable deviations on sampling time were ±1 min for the time points pre-dose through 1 hour post-dose, and +5% of the nominal time for time points after 1 hour post-dose.
# All blood samples were transferred into commercial tubes containing K2-EDTA. After blood was collected, the samples were placed on wet ice and processed for plasma within 60 minutes of collection by centrifugation at approximately 4° C., 3200×g for 10 minutes, and then quickly frozen over dry ice and kept at −60° C. or lower until LC-MS/MS analysis.
# Following terminal blood sample collection, animals were conducted CO2 euthanasia, the chest and abdominal cavities were opened carefully lengthwise using scissors to expose the internal organs in preparation of tissue perfusion. A needle was used to puncture a small hole into the left ventricle of the heart, and then clamped with a hemostat. […] Fluid (cold 1×PBS) was infused until the liver pales (typically 2-3 minutes). Following perfusion, 14 kinds of tissues (spleen, bone marrow, adipose, brain, heart, kidney, liver, lung, skin, small intestine, large intestine, eye, gonads, and bladder) were collected from each animal, respectively.
# Each tissue was weighed and homogenized on wet ice using homogenizing buffer (MeOH/15 mM PBS 1:2) at the ratio of 1:9 (1 g tissue with 9 mL buffer). The tissue homogenate was kept at −60° C. or lower until LC-MS/MS analysis. […]
# [1] = female SD rat, PO 10 mg/kg, Spleen
# [2] = male SD rat, PO 10 mg/kg, Bladder
# [3] = male SD rat, PO 10 mg/kg, Bone Marrow
# [4] = male SD rat, PO 10 mg/kg, Epididymis & Testis
# [5] = male SD rat, PO 10 mg/kg, Eyeball (left and right)
# [6] = male SD rat, PO 10 mg/kg, Heart
# [7] = male SD rat, PO 10 mg/kg, Kidney (left and right)
# [8] = male SD rat, PO 10 mg/kg, Large intestine
# [9] = male SD rat, PO 10 mg/kg, Liver
# [10] = male SD rat, PO 10 mg/kg, Small intestine
# [11] = male SD rat, PO 10 mg/kg, Spleen
# [12] = ovary and uterus, female SD rat, PO 10 mg/kg, Ovary & Uterus
compound,measurement,setting,value
"C[C@@H](c1ccc(Nc2cc(Nc3ncccc3S(C)(=O)=O)ncn2)nc1)N1CC2(COC2)C1 [Compound 1, (S)—N^4-(5-(1-(2-oxa-6-azaspiro[3.3]heptan-6-yl)ethyl)pyridin-2-yl)-N^6-(3-(methylsulfonyl)pyridin-2-yl)pyrimidine-4,6-diamine]",AUC0-24,[1],22131 ng·h/g
same,AUC0-inf,[1],22145 ng·h/g
same,AUC0-last,[1],19543 ng·h/g
same,Cmax,[1],4430 ng/g
same,Tmax,[1],0.5 h
same,half-life,[1],2.62 h
same,Kp,"female, SD, bladder, po, female SD rat, PO 10 mg/kg, Bladder, Tissue AUC0-last/Plasma AUC0-last, read-out: AUC Ratio",5.12
same,Kp,"female, SD, bone marrow, po, female SD rat, PO 10 mg/kg, Bone Marrow, Tissue AUC0-last/Plasma AUC0-last, read-out: AUC Ratio",4.64
same,Kp,"female, SD, eyeball (left and right), po, female SD rat, PO 10 mg/kg, Eyeball (left and right), Tissue AUC0-last/Plasma AUC0-last, read-out: AUC Ratio",0.953
same,Kp,"female, SD, fat, po, female SD rat, PO 10 mg/kg, Fat, Tissue AUC0-last/Plasma AUC0-last, read-out: AUC Ratio",0.506
same,Kp,"female, SD, heart, po, female SD rat, PO 10 mg/kg, Heart, Tissue AUC0-last/Plasma AUC0-last, read-out: AUC Ratio",1.39
same,Kp,"female, SD, kidney (left and right), po, female SD rat, PO 10 mg/kg, Kidney (left and right), Tissue AUC0-last/Plasma AUC0-last, read-out: AUC Ratio",30.6
same,Kp,"female, SD, large intestine, po, female SD rat, PO 10 mg/kg, Large intestine, Tissue AUC0-last/Plasma AUC0-last, read-out: AUC Ratio",11.6
same,Kp,"female, SD, liver, po, female SD rat, PO 10 mg/kg, Liver, Tissue AUC0-last/Plasma AUC0-last, read-out: AUC Ratio",8.67
same,Kp,"female, SD, lung, po, female SD rat, PO 10 mg/kg, Lung, Tissue AUC0-last/Plasma AUC0-last, read-out: AUC Ratio",2.57
same,Kp,"female, SD, ovary and uterus, po, female SD rat, PO 10 mg/kg, Ovary & Uterus, Tissue AUC0-last/Plasma AUC0-last, read-out: AUC Ratio",1.29
same,Kp,"female, SD, skin, po, female SD rat, PO 10 mg/kg, Skin, Tissue AUC0-last/Plasma AUC0-last, read-out: AUC Ratio",1.11
same,Kp,"female, SD, small intestine, po, female SD rat, PO 10 mg/kg, Small intestine, Tissue AUC0-last/Plasma AUC0-last, read-out: AUC Ratio",17.5
same,Kp,"female, SD, spleen, po, female SD rat, PO 10 mg/kg, Spleen, Tissue AUC0-last/Plasma AUC0-last, read-out: AUC Ratio",5.73
same,Kp,"female, Sprague-Dawley, ovaries, oral, SD rat, Ovaries, read-out: Tissue/Plasma Ratio (AUCinf)",1.4
same,AUC(0-t),"female, Sprague-Dawley, po, female SD rat, PO 10 mg/kg, read-out: AUC0-24",3610 ng·h/mL
same,AUC(0-t),"female, Sprague-Dawley, po, female SD rat, PO 10 mg/kg, read-out: AUC0-last",3410 ng·h/mL
same,AUC0-24,[2],14526 ng·h/g
same,AUC0-inf,[2],14666 ng·h/g
same,AUC0-last,[2],14526 ng·h/g
same,Cmax,[2],2980 ng/g
same,Tmax,[2],2 h
same,half-life,[2],3.38 h
same,AUC0-24,[3],10736 ng·h/g
same,AUC0-inf,[3],10835 ng·h/g
same,AUC0-last,[3],10736 ng·h/g
same,Cmax,[3],2900 ng/g
same,Tmax,[3],0.5 h
same,half-life,[3],3.51 h
same,AUC0-24,[4],5163 ng·h/g
same,AUC0-last,[4],5163 ng·h/g
same,AUC0-24,[5],1795 ng·h/g
same,AUC0-inf,[5],1830 ng·h/g
same,AUC0-last,[5],1332 ng·h/g
same,AUC0-24,"male SD rat, PO 10 mg/kg, Fat",1703 ng·h/g
same,AUC0-inf,"male SD rat, PO 10 mg/kg, Fat",1716 ng·h/g
same,AUC0-last,"male SD rat, PO 10 mg/kg, Fat",1388 ng·h/g
same,AUC0-24,[6],3366 ng·h/g
same,AUC0-inf,[6],3374 ng·h/g
same,AUC0-last,[6],3004 ng·h/g
same,AUC0-24,[7],23128 ng·h/g
same,AUC0-inf,[7],23415 ng·h/g
same,AUC0-last,[7],23128 ng·h/g
same,AUC0-24,[8],45091 ng·h/g
same,AUC0-last,[8],45091 ng·h/g
same,AUC0-24,[9],20288 ng·h/g
same,AUC0-inf,[9],20534 ng·h/g
same,AUC0-last,[9],20288 ng·h/g
same,Cmax,[9],5400 ng/g
same,Tmax,[9],0.5 h
same,half-life,[9],3.87 h
same,AUC0-24,"male SD rat, PO 10 mg/kg, Lung",5806 ng·h/g
same,AUC0-inf,"male SD rat, PO 10 mg/kg, Lung",5835 ng·h/g
same,AUC0-last,"male SD rat, PO 10 mg/kg, Lung",4926 ng·h/g
same,Cmax,"male SD rat, PO 10 mg/kg, Lung",1960 ng/g
same,Tmax,"male SD rat, PO 10 mg/kg, Lung",0.5 h
same,half-life,"male SD rat, PO 10 mg/kg, Lung",2.7 h
same,AUC0-24,"male SD rat, PO 10 mg/kg, Skin",7864 ng·h/g
same,AUC0-inf,"male SD rat, PO 10 mg/kg, Skin",9352 ng·h/g
same,AUC0-last,"male SD rat, PO 10 mg/kg, Skin",7864 ng·h/g
same,Cmax,"male SD rat, PO 10 mg/kg, Skin",868 ng/g
same,Tmax,"male SD rat, PO 10 mg/kg, Skin",0.5 h
same,half-life,"male SD rat, PO 10 mg/kg, Skin",8.6 h
same,AUC0-24,[10],73082 ng·h/g
same,AUC0-inf,[10],73697 ng·h/g
same,AUC0-last,[10],73822 ng·h/g
same,Cmax,[10],16500 ng/g
same,Tmax,[10],0.5 h
same,half-life,[10],3.41 h
same,AUC0-24,[11],13189 ng·h/g
same,AUC0-inf,[11],13631 ng·h/g
same,AUC0-last,[11],13189 ng·h/g
same,Cmax,[11],4230 ng/g
same,Tmax,[11],0.5 h
same,half-life,[11],4.91 h
same,Kp,"male, SD, bladder / plasma, po, male SD rat, PO 10 mg/kg, Bladder, Tissue AUC0-last/Plasma AUC0-last, read-out: AUC Ratio",3.37
same,Kp,"male, SD, bone marrow / plasma, po, male SD rat, PO 10 mg/kg, Bone Marrow, Tissue AUC0-last/Plasma AUC0-last, read-out: AUC Ratio",3.97
same,Kp,"male, SD, large intestine / plasma, po, male SD rat, PO 10 mg/kg, Large intestine, Tissue AUC0-last/Plasma AUC0-last, read-out: AUC Ratio",16.7
same,Kp,"male, SD, liver / plasma, po, male SD rat, PO 10 mg/kg, Liver, Tissue AUC0-last/Plasma AUC0-last, read-out: AUC Ratio",7.5
same,Kp,"male, SD, lung / plasma, po, male SD rat, PO 10 mg/kg, Lung, Tissue AUC0-last/Plasma AUC0-last, read-out: AUC Ratio",1.82
same,Kp,"male, SD, skin / plasma, po, male SD rat, PO 10 mg/kg, Skin, Tissue AUC0-last/Plasma AUC0-last, read-out: AUC Ratio",2.91
same,Kp,"male, SD, small intestine / plasma, po, male SD rat, PO 10 mg/kg, Small intestine, Tissue AUC0-last/Plasma AUC0-last, read-out: AUC Ratio",27
same,Kp,"male, SD, spleen / plasma, po, male SD rat, PO 10 mg/kg, Spleen, Tissue AUC0-last/Plasma AUC0-last, read-out: AUC Ratio",4.88
same,Kp,"male, Sprague-Dawley, epididymis and testis, po, male SD rat, PO 10 mg/kg, Epididymis & Testis, Tissue AUC0-last/Plasma AUC0-last, read-out: AUC Ratio",1.91
same,Kp,"male, Sprague-Dawley, eyeball (left and right), po, male SD rat, PO 10 mg/kg, Eyeball (left and right), Tissue AUC0-last/Plasma AUC0-last, read-out: AUC Ratio",0.492
same,Kp,"male, Sprague-Dawley, fat, po, male SD rat, PO 10 mg/kg, Fat, Tissue AUC0-last/Plasma AUC0-last, read-out: AUC Ratio",0.513
same,Kp,"male, Sprague-Dawley, heart, po, male SD rat, PO 10 mg/kg, Heart, Tissue AUC0-last/Plasma AUC0-last, read-out: AUC Ratio",1.11
same,Kp,"male, Sprague-Dawley, kidney (left and right), po, male SD rat, PO 10 mg/kg, Kidney (left and right), Tissue AUC0-last/Plasma AUC0-last, read-out: AUC Ratio",8.35
same,AUC(0-t),"male, Sprague-Dawley, po, male SD rat, PO 10 mg/kg, read-out: AUC0-24",2910 ng·h/mL
same,AUC(0-t),"male, Sprague-Dawley, po, male SD rat, PO 10 mg/kg, read-out: AUC0-last",2700 ng·h/mL
same,Kp,"male, Sprague-Dawley, testis, oral, SD rat, Testis, read-out: Tissue/Plasma Ratio (AUCinf)",1.6
same,Cmax,[12],976 ng/g
same,Tmax,[12],0.5 h
same,half-life,[12],2.68 h
